In patent US8906944B2, “Compounds as tyrosine kinase modulators” (Allergan, Inc., priority 2009, dated 2014):

Legend:
PDGFβ = PDGFβ (Homo sapiens, UniProt P09619); assay: PDGFβ enzyme assay; format: biochemical; conditions: Table IV, amide or urea linker
VEGFR1 = VEGFR1 (Homo sapiens, UniProt P17948); assay: VEGFR1 enzyme assay; format: biochemical; conditions: Table IV, amide or urea linker
VEGFR2 = VEGFR2 (Homo sapiens, UniProt P35968); assay: VEGF stimulated Ca++ signal in vitro (FLIPR)
Experimental: VEGF Stimulated Ca^++Signal in Vitro
Automated FLIPR (Fluorometric Imaging Plate Reader) technology was used to screen for inhibitors of VEGF induced increases in intracellular calcium levels in fluorescent dye loaded endothelial cells. HUVEC (human umbilical vein endothelial cells) (Clonetics) were seeded in 96-well fibronectin coated black-walled plates overnight at 37 degree. C./5% CO2. […] C. Cells were washed 4 times (Original Cell Wash, Labsystems) to remove extracellular dye. […] Data were generated by determining max-min fluorescence levels for unstimulated, stimulated, and drug treated samples. IC50 values for test compounds were calculated from % inhibition of VEGF stimulated responses in the absence of inhibitor.

[1] = target: T1, human VEGF receptor (VEGFR-2) (Homo sapiens, UniProt P35968); assay: VEGFR2 kinase assay; format: biochemical; conditions: His-VEGFR-2 cytoplasmic domain, 3.6 μM ATP; Table IV, amide or urea linker; read-out: VEGFR2 Enzyme IC50
T1 construct: The cytoplasmic domain of the human VEGF receptor (VEGFR-2) was expressed; His; made in house; host or cells: insect cells (baculovirus)
T1 sequence (P35968 786-1356 limits assumed): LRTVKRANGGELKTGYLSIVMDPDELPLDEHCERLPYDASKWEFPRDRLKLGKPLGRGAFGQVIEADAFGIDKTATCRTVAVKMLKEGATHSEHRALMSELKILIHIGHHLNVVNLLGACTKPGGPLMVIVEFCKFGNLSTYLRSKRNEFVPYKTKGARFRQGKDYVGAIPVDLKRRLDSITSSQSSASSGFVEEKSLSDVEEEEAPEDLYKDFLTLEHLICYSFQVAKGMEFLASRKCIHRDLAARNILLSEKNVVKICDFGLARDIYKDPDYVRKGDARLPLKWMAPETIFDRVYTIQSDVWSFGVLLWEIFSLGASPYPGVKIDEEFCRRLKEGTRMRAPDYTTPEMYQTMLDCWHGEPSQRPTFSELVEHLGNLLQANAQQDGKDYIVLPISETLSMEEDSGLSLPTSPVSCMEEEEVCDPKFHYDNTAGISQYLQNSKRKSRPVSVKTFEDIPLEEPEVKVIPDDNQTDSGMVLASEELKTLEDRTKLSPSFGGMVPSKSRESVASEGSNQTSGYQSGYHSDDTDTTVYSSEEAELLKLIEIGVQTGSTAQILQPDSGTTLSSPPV
Outline: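 His-tagged VEGFR-2 cytoplasmic domain from baculovirus-infected insect cells phosphorylating plate-bound poly-Glu-Tyr (4:1). IC50 from blank-subtracted optical density versus compound concentration.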

Chain of VEGFR2 (P35968 20-1356): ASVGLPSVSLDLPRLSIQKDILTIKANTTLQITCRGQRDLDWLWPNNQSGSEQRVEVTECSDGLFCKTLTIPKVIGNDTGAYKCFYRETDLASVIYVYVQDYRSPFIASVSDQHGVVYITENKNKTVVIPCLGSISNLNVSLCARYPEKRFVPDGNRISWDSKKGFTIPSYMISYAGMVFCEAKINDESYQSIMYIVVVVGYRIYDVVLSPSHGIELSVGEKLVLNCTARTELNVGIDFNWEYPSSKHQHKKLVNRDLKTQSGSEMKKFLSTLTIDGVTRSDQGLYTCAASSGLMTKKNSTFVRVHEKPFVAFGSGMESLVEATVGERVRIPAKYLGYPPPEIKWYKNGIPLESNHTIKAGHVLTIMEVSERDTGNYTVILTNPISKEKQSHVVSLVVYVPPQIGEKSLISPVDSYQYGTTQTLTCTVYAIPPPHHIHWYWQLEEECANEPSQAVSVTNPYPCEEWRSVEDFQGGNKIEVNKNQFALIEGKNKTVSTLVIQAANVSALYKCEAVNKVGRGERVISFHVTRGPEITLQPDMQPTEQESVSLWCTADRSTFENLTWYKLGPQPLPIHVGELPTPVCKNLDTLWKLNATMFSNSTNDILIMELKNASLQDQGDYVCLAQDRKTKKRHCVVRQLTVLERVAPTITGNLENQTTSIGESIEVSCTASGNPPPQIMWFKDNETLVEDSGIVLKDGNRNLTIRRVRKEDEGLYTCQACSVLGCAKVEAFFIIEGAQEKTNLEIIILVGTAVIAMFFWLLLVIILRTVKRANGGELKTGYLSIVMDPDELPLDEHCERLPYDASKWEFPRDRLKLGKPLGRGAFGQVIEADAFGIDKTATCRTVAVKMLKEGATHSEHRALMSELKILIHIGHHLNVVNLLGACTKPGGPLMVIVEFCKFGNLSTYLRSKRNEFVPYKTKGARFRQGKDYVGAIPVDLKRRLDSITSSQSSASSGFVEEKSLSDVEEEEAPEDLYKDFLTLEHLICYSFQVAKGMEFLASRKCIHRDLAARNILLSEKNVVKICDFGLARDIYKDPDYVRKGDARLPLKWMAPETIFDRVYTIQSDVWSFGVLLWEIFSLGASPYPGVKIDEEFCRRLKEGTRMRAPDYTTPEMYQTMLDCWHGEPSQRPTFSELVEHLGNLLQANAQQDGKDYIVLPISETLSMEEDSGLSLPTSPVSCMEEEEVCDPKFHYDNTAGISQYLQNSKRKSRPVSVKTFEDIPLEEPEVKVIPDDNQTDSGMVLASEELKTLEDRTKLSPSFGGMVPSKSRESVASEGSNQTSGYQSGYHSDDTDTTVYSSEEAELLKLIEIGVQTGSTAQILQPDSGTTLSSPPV
Chain of VEGFR1 (P17948 27-1338, species assumed): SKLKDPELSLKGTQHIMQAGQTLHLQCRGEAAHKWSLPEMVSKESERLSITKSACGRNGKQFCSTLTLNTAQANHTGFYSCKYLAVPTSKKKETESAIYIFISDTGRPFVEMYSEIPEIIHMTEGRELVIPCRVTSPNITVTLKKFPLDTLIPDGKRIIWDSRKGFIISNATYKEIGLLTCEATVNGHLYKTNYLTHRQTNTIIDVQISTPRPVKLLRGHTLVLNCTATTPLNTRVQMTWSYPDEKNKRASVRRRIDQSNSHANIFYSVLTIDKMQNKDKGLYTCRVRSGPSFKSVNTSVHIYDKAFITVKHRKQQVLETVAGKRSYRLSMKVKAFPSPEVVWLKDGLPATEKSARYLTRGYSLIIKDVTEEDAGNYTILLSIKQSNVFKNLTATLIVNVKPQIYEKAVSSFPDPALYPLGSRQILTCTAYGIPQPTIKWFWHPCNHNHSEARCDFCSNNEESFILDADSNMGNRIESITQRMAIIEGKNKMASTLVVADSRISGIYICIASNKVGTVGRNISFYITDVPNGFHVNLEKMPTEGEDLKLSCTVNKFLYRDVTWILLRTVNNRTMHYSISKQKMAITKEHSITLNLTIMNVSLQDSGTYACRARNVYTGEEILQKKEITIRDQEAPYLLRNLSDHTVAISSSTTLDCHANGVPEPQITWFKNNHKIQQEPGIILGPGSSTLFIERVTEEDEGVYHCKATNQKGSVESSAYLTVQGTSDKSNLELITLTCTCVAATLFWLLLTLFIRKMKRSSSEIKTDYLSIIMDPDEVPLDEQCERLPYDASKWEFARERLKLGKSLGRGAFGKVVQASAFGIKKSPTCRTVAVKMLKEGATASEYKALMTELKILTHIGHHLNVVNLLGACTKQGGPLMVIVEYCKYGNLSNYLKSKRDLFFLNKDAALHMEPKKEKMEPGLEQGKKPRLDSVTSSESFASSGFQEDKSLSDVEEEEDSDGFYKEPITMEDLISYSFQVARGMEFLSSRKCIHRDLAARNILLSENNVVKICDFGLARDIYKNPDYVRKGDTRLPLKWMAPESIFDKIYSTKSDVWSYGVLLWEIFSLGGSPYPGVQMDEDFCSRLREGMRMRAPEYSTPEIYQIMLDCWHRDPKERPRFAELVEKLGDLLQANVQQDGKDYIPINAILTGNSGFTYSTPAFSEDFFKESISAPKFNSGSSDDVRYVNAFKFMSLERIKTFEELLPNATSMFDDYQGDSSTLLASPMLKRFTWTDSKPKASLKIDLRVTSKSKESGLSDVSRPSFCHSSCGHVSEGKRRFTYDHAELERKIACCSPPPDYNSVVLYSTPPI
Chain of PDGFβ (P09619 33-1106): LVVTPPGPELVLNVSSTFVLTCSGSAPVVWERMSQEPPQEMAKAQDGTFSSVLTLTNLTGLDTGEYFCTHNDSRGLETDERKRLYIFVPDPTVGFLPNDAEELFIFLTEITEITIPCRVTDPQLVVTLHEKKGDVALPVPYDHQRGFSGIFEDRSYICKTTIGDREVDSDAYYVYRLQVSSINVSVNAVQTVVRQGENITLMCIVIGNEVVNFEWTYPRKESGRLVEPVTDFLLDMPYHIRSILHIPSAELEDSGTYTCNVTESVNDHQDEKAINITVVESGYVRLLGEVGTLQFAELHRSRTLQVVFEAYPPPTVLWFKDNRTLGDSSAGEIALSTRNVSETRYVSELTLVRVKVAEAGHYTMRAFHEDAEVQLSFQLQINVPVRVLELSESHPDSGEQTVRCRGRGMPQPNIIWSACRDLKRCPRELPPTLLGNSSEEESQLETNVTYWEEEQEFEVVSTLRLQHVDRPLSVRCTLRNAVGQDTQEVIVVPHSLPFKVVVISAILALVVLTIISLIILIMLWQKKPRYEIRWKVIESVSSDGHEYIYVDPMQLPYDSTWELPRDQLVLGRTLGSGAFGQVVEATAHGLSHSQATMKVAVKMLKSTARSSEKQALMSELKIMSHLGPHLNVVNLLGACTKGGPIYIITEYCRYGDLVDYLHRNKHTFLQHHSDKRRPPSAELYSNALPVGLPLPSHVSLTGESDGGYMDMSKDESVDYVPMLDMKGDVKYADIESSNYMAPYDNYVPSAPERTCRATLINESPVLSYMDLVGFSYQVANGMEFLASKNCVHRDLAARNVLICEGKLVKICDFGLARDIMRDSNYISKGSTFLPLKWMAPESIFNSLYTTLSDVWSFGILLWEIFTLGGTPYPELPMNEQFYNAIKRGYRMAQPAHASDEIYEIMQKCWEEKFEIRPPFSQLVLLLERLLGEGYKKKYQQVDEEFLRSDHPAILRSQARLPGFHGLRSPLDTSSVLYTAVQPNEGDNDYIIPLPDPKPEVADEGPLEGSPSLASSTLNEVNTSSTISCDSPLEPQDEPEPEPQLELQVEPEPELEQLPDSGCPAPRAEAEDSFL

| IC50 (PDGFβ) [µM] | IC50 (VEGFR1) [µM] | IC50 (VEGFR2) [µM] | IC50 [1] [µM] | Compound |
| --- | --- | --- | --- | --- |
| 0.02 | 0.009 | 0.01 | 0.009 | COC(=O)[C@@H]1C[C@@H](O)CN1CCNC(=O)c1c[nH]c(-c2cc(Oc3ccc(NC(=O)Nc4cc(C)ccc4F)cc3)ccn2)c1 (relative stereo) [Example 161, methyl rel-(2R,4S)-1-(2-{[(5-{4-[4-({[(2-fluoro-5-methylphenyl)amino]carbonyl}amino)phenoxy]pyridin-2-yl}-1H-pyrrol-3-yl)carbonyl]amino}ethyl)-4-hydroxypyrrolidine-2-carboxylate] |
| 0.017 | 0.01 | 0.005 | 0.009 | COC(=O)[C@@H]1C[C@@H](O)CN1CCCNC(=O)c1c[nH]c(-c2cc(Oc3ccc(NC(=O)Nc4cc(C)ccc4F)cc3)ccn2)c1 (relative stereo) [Example 164, methyl rel-(2R,4S)-1-(3-{[(5-{4-[4-({[(2-fluoro-5-methylphenyl)amino]carbonyl}amino)phenoxy]pyridin-2-yl}-1H-pyrrol-3-yl)carbonyl]amino}propyl)-4-hydroxypyrrolidine-2-carboxylate] |
| 0.021 | 0.01 | 0.01 | 0.005 | COC(=O)[C@@H]1C[C@@H](O)CN1CCCNC(=O)c1c[nH]c(-c2cc(Oc3ccc(NC(=O)Nc4cc(C)ccc4F)c(F)c3)ccn2)c1 (relative stereo) [Example 217, methyl rel-(2R,4S)-1-(3-{[(5-{4-[3-fluoro-4-({[(2-fluoro-5-methylphenyl)amino]carbonyl}amino)phenoxy]pyridin-2-yl}-1H-pyrrol-3-yl)carbonyl]amino}propyl)-4-hydroxypyrrolidine-2-carboxylate] |
| 0.015 | 0.008 | 0.014 | 0.007 | COC(=O)CNCCCNC(=O)c1c[nH]c(-c2cc(Oc3ccc(NC(=O)Nc4cc(C)ccc4F)cc3)ccn2)c1 [Example 154, methyl [(3-{[(5-{4-[4-({[(2-fluoro-5-methylphenyl)amino]carbonyl}amino)phenoxy]pyridin-2-yl}-1H-pyrrol-3-yl)carbonyl]amino}propyl)amino]acetate] |
| 0.02 | 0.007 | 0.004 | 0.008 | COC(=O)CNCCNC(=O)c1c[nH]c(-c2cc(Oc3ccc(NC(=O)Nc4cc(C)ccc4F)cc3)ccn2)c1 [Example 155, methyl [(2-{[(5-{4-[4-({[(2-fluoro-5-methylphenyl)amino]carbonyl}amino)phenoxy]pyridin-2-yl}-1H-pyrrol-3-yl)carbonyl]amino}ethyl)amino]acetate] |
| 0.031 | 0.008 | 0.009 | 0.011 | COC(=O)CN(CCNC(=O)c1c[nH]c(-c2cc(Oc3ccc(NC(=O)Nc4cc(C)ccc4F)cc3)ccn2)c1)CC(=O)OC [Example 156, dimethyl 2,2′-[(2-{[(5-{4-[4-({[(2-fluoro-5-methylphenyl)amino]carbonyl}amino)phenoxy]pyridin-2-yl}-1H-pyrrol-3-yl)carbonyl]amino}ethyl)imino]diacetate] |
| 0.039 | 0.008 | 0.003 | 0.01 | CCOC(=O)CN1CCN(CCNC(=O)c2c[nH]c(-c3cc(Oc4ccc(NC(=O)Nc5cc(C)ccc5F)cc4)ccn3)c2)CC1 [Example 157, ethyl [4-(2-{[(5-{4-[4-({[(2-fluoro-5-methylphenyl)amino]carbonyl}amino)phenoxy]pyridin-2-yl}-1H-pyrrol-3-yl)carbonyl]amino}ethyl)piperazin-1-yl]acetate] |
| 0.029 | 0.006 | 0.011 | 0.011 | CCOC(=O)CN1CCN(CCCNC(=O)c2c[nH]c(-c3cc(Oc4ccc(NC(=O)Nc5cc(C)ccc5F)cc4)ccn3)c2)CC1 [Example 158, ethyl [4-(3-{[(5-{4-[4-({[(2-fluoro-5-methylphenyl)amino]carbonyl}amino)phenoxy]pyridin-2-yl}-1H-pyrrol-3-yl)carbonyl]amino}propyl)piperazin-1-yl]acetate] |
| 0.033 | 0.009 | 0.026 | 0.011 | Cc1ccc(F)c(NC(=O)Nc2ccc(Oc3ccnc(-c4cc(C(=O)NCCCN5CCOC(CO)C5)c[nH]4)c3)cc2)c1 (stereo not drawn) [Example 159, 5-{4-[4-({[(2-fluoro-5-methylphenyl)amino]carbonyl}amino)phenoxy]pyridin-2-yl}-N-{3-[2-(hydroxymethyl)morpholin-4-yl]propyl}-1H-pyrrole-3-carboxamide] |
| 0.035 | 0.017 | 0.012 | 0.01 | COC(=O)CCCOC(=O)c1c[nH]c(-c2cc(Oc3ccc(NC(=O)Nc4cc(C)ccc4F)cc3)ccn2)c1 [Example 165, 4-methoxy-4-oxobutyl 5-{4-[4-({[(2-fluoro-5-methylphenyl)amino]carbonyl}amino)phenoxy]pyridin-2-yl}-1H-pyrrole-3-carboxylate] |
| 0.027 | 0.021 | 0.011 | 0.009 | CCOC(=O)CCCCNC(=O)c1c[nH]c(-c2cc(Oc3ccc(NC(=O)Nc4cc(C)ccc4F)cc3)ccn2)c1 [Example 167, ethyl 5-{[(5-{4-[4-({[(2-fluoro-5-methylphenyl)amino]carbonyl}amino)phenoxy]pyridin-2-yl}-1H-pyrrol-3-yl)carbonyl]amino}pentanoate] |
| 0.012 | 0.017 | 0.011 | 0.01 | CCOC(=O)N1CCN(CCNC(=O)c2c[nH]c(-c3cc(Oc4ccc(NC(=O)Nc5cc(C)ccc5F)c(F)c4)ccn3)c2)CC1 [Example 168, ethyl 4-(2-{[(5-{4-[3-fluoro-4-({[(2-fluoro-5-methylphenyl)amino]carbonyl}amino)phenoxy]pyridin-2-yl}-1H-pyrrol-3-yl)carbonyl]amino}ethyl)piperazine-1-carboxylate] |
| – | 0.032 | 0.005 | 0.027 | COC(=O)[C@@H]1CCCN1CCCNC(=O)c1c[nH]c(-c2cc(Oc3ccc(F)c(NC(=O)c4occc4C)c3)ccn2)c1 [Example 188, methyl 1-[3-({[5-(4-{4-fluoro-3-[(3-methyl-2-furoyl)amino]phenoxy}pyridin-2-yl)-1H-pyrrol-3-yl]carbonyl}amino)propyl]pyrrolidine-2-carboxylate] |
| – | 0.037 | 0.015 | 0.034 | Cc1ccoc1C(=O)Nc1cc(Oc2ccnc(-c3cc(C(=O)NCCCN4CCC(O)CC4)c[nH]3)c2)ccc1F [Example 189, 5-(4-{4-fluoro-3-[(3-methyl-2-furoyl)amino]phenoxy}pyridin-2-yl)-N-[3-(4-hydroxypiperidin-1-yl)propyl]-1H-pyrrole-3-carboxamide] |
| – | 0.035 | 0.011 | 0.031 | Cc1ccoc1C(=O)Nc1cc(Oc2ccnc(-c3cc(C(=O)NCCCN4CCN(C)CC4)c[nH]3)c2)ccc1F [Example 193, 5-(4-{4-fluoro-3-[(3-methyl-2-furoyl)amino]phenoxy}pyridin-2-yl)-N-[3-(4-methylpiperazin-1-yl)propyl]-1H-pyrrole-3-carboxamide] |
| 0.022 | – | 0.005 | 0.009 | COCCOC(=O)CCCNC(=O)c1c[nH]c(-c2cc(Oc3ccc(NC(=O)Nc4cc(C)ccc4F)cc3)ccn2)c1 [Example 233, 2-methoxyethyl 4-{[(5-{4-[4-({[(2-fluoro-5-methylphenyl)amino]carbonyl}amino)phenoxy]pyridin-2-yl}-1H-pyrrol-3-yl)carbonyl]amino}butanoate] |
| 0.028 | – | 0.004 | 0.019 | Cc1cccc(NC(=O)Nc2ccc(Oc3ccnc(-c4cc(C(=O)NN)c[nH]4)c3)cc2)c1 [Example 238, 1-[4-({2-[4-(hydrazinocarbonyl)-1H-pyrrol-2-yl]pyridin-4-yl}oxy)phenyl]-3-(3-methylphenyl)urea] |
| 0.016 | – | 0.002 | 0.007 | Cc1cccc(NC(=O)Nc2ccc(Oc3ccnc(-c4cc(C(=O)NCCCN5CCOCC5)c[nH]4)c3)cc2)c1 [Example 239, 5-{4-[4-({[(3-methylphenyl)amino]carbonyl}amino)phenoxy]pyridin-2-yl}-N-(3-morpholin-4-ylpropyl)-1H-pyrrole-3-carboxamide] |
| 0.041 | 0.021 | – | 0.036 | Cc1ccc(F)c(NC(=O)c2ccc(F)c(Oc3ccnc(-c4cc(C(=O)NCCC(=O)O)c[nH]4)c3)c2)c1 [Example 258, 3-[({5-[4-(2-fluoro-5-{[(2-fluoro-5-methylphenyl)amino]carbonyl}phenoxy)pyridin-2-yl]-1H-pyrrol-3-yl}carbonyl)amino]propanoic acid] |
| 0.047 | 0.023 | – | 0.035 | COC(=O)CCNC(=O)c1c[nH]c(-c2cc(Oc3cc(C(=O)Nc4cc(C)ccc4F)ccc3F)ccn2)c1 [Example 259, methyl 3-[({5-[4-(2-fluoro-5-{[(2-fluoro-5-methylphenyl)amino]carbonyl}phenoxy)pyridin-2-yl]-1H-pyrrol-3-yl}carbonyl)amino]propanoate] |
| 0.016 | 0.015 | – | 0.014 | Cc1ccc(F)c(NC(=O)Nc2ccc(Oc3ccnc(-c4csc(C(=O)NCCC(=O)O)c4)c3)cc2)c1 [Example 278, 3-{[(4-{4-[4-({[(2-fluoro-5-methylphenyl)amino]carbonyl}amino)phenoxy]pyridin-2-yl}-2-thienyl)carbonyl]amino}propanoic acid] |
| 0.023 | – | 0.001 | 0.021 | COC(=O)CCNC(=O)c1cc(-c2cc(Oc3ccc(NC(=O)Nc4cc(C)ccc4F)cc3)ccn2)cs1 [Example 279, methyl 3-{[(4-{4-[4-({[(2-fluoro-5-methylphenyl)amino]carbonyl}amino)phenoxy]pyridin-2-yl}-2-thienyl)carbonyl]amino}propanoate] |
